Laboratory results published in article PMC7436000, “The Spectrum of Design Solutions for Improving the Activity-Selectivity Product of Peptide Antibiotics against Multidrug-Resistant Bacteria and Prostate Cancer PC-3 Cells” (Molecules, 2020).
Values after ≈ are worked out from the molar mass of the structure shown. Read-outs that look alike come from different tables or passages of the source. Peptide text beside a SMILES is read from it.

Columns and labels:
[1] = tested on: PC-3 prostate cancer cell line; type: cell-based, human
Procedure: (§1) Prostate cancer cells were donated by the University of Split, School of Medicine. Cells were cultured in RMPI-1640 medium, supplemented with 10% FBS, 1% Penicillin-Streptomycin, and 1% L-Glutamine. Human dermal fibroblasts were purchased from Biopredic (France) and cultured in DMEM medium, supplemented with 10% FBS and 1% Penicillin-Streptomycin. All cell lines were maintained in a humidified incubator with 5% CO2 at 37 °C. Cells were detached using the trypsin-EDTA solution and sub-cultured (7000 cells/well) in a 96-well plate overnight. Peptide stock solutions were prepared in PBS, and cancer cells were treated with 2-fold serial dilutions for 24 h at 37 °C, with 5% CO2. The toxicity of 6 selected peptides was assessed by a standard MTT assay. Treated cells were incubated with MTT working solution (0.5 mg/mL Thiazolyl Blue Tetrazolium Bromide) for 4 h at 37 °C with 5% CO2. Precipitated formazan was dissolved in 200 µL DMSO and absorbance was measured at 595 nm with EnSight Multimode Plate Reader (PerkinElmer, Inc.)

[2] = tested on: A. baum. clin. isolate; type: cell-based, Acinetobacter baumannii
From the text: (§2) The American Type Culture Collection (ATCC, Rockville, MD, USA) strains and Escherichia coli MG1655 were used as standard bacterial strains. Gram-negative ATCC strains consisted of Escherichia coli (ATCC 25922), Pseudomonas aeruginosa (ATCC 27853), Acinetobacter baumannii (ATCC 19606), and Klebsiella pneumoniae (ATCC 13883). The only Gram-positive standard strain chosen for testing was Staphylococcus aureus (ATCC 29213). Clinical isolates with confirmed multidrug-resistance phenotype were obtained from different wards of the University Hospital Center, Split, Croatia. We described their origin, antibiograms, and resistance phenotype previously. In the same paper, we described the procedure for antimicrobial susceptibility testing on planktonic cells, using the microdilution method in 96-well microtiter plates.
(§3) Briefly, cells were grown on agar plates and a single colony was sampled to generate a liquid culture (LC) grown overnight at 37 °C. The culture was sampled, resuspended in fresh medium, and allowed to grow at 37 °C, until reaching the mid-exponential phase. Lysogeny broth (LB) was used in the case of the E. coli MG1655 cells. Mueller Hinton (MH) medium was used for all other bacterial strains. Serial 2-fold dilutions of the peptide (64 μM to 0.0625 μM) were prepared from peptide stock solution in PBS, and added to a final load of 5 × 10^5 CFU/mL in 100 μL total volume of medium per well in a 96-well plate (Brand 781660). Bacterial cultures were incubated with peptides for 18 h to 24 h at 37 °C. The minimum inhibitory concentration (MIC) was defined as the lowest concentration of the peptide, at which no visible bacterial growth was observed. The MIC for each of the tested peptides was determined in at least three individual assays under the same laboratory conditions. […] At the end of the incubation period for MIC or MBC, the determination of the OD600 was analyzed.

[3] = tested on: human erythrocytes; test: Hemolysis of human erythrocytes; type: cell-based; conditions: for HC10: concentration causing 10% hemolysis, 0.2% Triton = 100%; for HC10 / HC20 / HC50: 0.5% RBC in PBS, 1 h, 37 °C, absorbance 450 nm, triplicate; for HC20: concentration causing 20% hemolysis; for HC50: concentration causing 50% hemolysis
Procedure: Fresh blood was obtained from a healthy donor. Blood was stored in a tube containing EDTA at 4 °C and used within 24 h. Before use, 1 mL of blood was centrifuged (400× g, 10 min), and the supernatant was discarded. Moreover, 500 μL cold PBS with EDTA (1 mM) was added, mixed and centrifuged. The supernatant was discarded. Furthermore, 500 μL of cold PBS with EDTA (1 mM) was added, from which a dilution of 1% blood was made. Peptides were prepared in PBS at a 2 × concentration in 100 µL. […] The suspension was incubated at 37 °C for 1 h and centrifuged at 10,000× g for 5 min. […] After centrifugation, the supernatant was added to a 96-well microtiter plate (150–180 μL), and the absorbance was measured at 450 nm, using EnSight Multimode Plate Reader (PerkinElmer, Inc.). Each measurement was done in triplicate. […] We opted to also include the extrapolated HC50 in our results, to permit comparisons with older toxicity results. However, the HC20 measurements were used for ranking the peptides according to their selectivity and overall performance (Figure 1 and Figure 2 and Table 2).

[4] = tested on: Pseudomonas aeruginosa (ATCC 27853); type: cell-based; conditions: ATCC 27853
From the text: as §2, §3

[5] = tested on: Staphylococcus aureus (ATCC 29213); type: cell-based
From the text: as §2, §3

[6] = tested on: Escherichia coli (ATCC 25922); type: cell-based; conditions: ATCC 25922
From the text: as §2, §3

[7] = tested on: Klebsiella pneumoniae (ATCC 13883); type: cell-based; conditions: ATCC 13883
From the text: as §2, §3

[8] = tested on: Escherichia coli MG1655; type: cell-based
From the text: as §2, §3

[9] = tested on: Acinetobacter baumannii (ATCC 19606); type: cell-based; conditions: ATCC 19606
From the text: as §2, §3

[10] = tested on: S. aureus clin. isolate; type: cell-based, Staphylococcus aureus; conditions: clin. isolate
From the text: as §2, §3

[11] = tested on: K. pneum. clin. isolate; type: cell-based, Klebsiella pneumoniae
From the text: as §2, §3

[12] = tested on: human primary dermal fibroblasts; type: cell-based
Procedure: as §1

[13] = tested on: E. coli clin. isolate; type: cell-based, Escherichia coli; conditions: clin. isolate
From the text: as §2, §3

[14] = tested on: P. aerug. clin. isolate; type: cell-based, Pseudomonas aeruginosa
From the text: as §2, §3

| Compound | (TI/ IC50C) vs. MP1 ([1]; 24 h) | IC50 ([1]; 24 h) | TI (HC20/IC20C) ([1]; 24 h) | TI (IC50F/IC50C) ([1]; 24 h) | TI/ IC50C ([1]; 24 h) | MIC (A. baum. clin. isolate) [2] | HC10 [3] | HC20 [3] | MIC (P. aerug. ATCC 27853) [4] | MIC (S. aureus ATCC 29213) [5] | MIC (E. coli ATCC 25922) [6] | MIC (K. pneum. ATCC 13883) [7] | MIC (E. coli MG1655) ([8]; MG1655) | MIC (A. baum. ATCC 19606) [9] | MIC (S. aureus clin. isolate) [10] | MIC (K. pneum. clin. isolate) [11] | IC50 ([12]; 24 h) | MIC (E. coli clin. isolate) [13] | MIC (P. aerug. clin. isolate) [14] | HC50 [3] | also measured |
| --- | --- | --- | --- | --- | --- | --- | --- | --- | --- | --- | --- | --- | --- | --- | --- | --- | --- | --- | --- | --- | --- |
| CC[C@H](C)[C@H](NC(=O)CN)C(=O)N[C@@H](CCCCN)C(=O)N[C@@H](CCCCN)C(=O)N[C@@H](C)C(=O)N[C@H](C(=O)NCC(=O)N[C@@H](CCCCN)C(=O)N[C@@H](C)C(=O)N[C@@H](CC(C)C)C(=O)N[C@@H](CCCCN)C(=O)NCC(=O)N[C@@H](CC(C)C)C(=O)N[C@@H](CCCCN)C(=O)NCC(=O)N[C@@H](CC(C)C)C(=O)N[C@@H](CC(C)C)C(=O)N[C@@H](CCCCN)C(=O)N[C@@H](C)C(=O)N[C@@H](CC(C)C)C(=O)NCC(=O)N[C@@H](CCC(=O)O)C(=O)N[C@@H](CO)C(N)=O)C(C)C [A1A] (H-GIKKAVGKALKGLKGLLKALGES-NH2) | 5 | 12 µM | 27 | 2.5 | 0.21 | 4 to 8 µM | 25 µM | 80 µM | 64 µM (≈ 146 µg/mL) | 1 µM (≈ 2.28 µg/mL) | 1 µM (≈ 2.28 µg/mL) | 4 µM (≈ 9.12 µg/mL) | 2 µM (≈ 4.56 µg/mL) | 2 µM (≈ 4.56 µg/mL) | 4 µM (≈ 9.12 µg/mL) | 8 µM (≈ 18.2 µg/mL) | 30 µM | 32 µM (≈ 72.9 µg/mL) | >64 µM | – | HC50 * (extrapolated) ([3]; extrapolated, all concentrations tested lysed less than 50% of cells): 125 * µM; PEa(20) = SI/MIC(aureus) ([5]; ATCC 29213, 18 h): 80 µM⁻¹ |
| CC[C@H](C)[C@H](NC(=O)CN)C(=O)N[C@@H](CCCCN)C(=O)N[C@@H](CCCCN)C(=O)N[C@@H](Cc1c[nH]c2ccccc12)C(=O)N[C@H](C(=O)N[C@@H](CCCCN)C(=O)NCC(=O)N[C@H](C(=O)N[C@@H](C)C(=O)N[C@@H](CCCCN)C(=O)NCC(=O)N[C@H](C(=O)N[C@@H](C)C(=O)N[C@@H](CCCCN)C(=O)N[C@@H](CC(=O)O)C(=O)N[C@@H](CC(C)C)C(=O)N[C@@H](C)C(=O)N[C@@H](CCCCN)C(=O)N[C@@H](CCCCN)C(=O)N[C@H](C(=O)N[C@@H](CC(C)C)C(N)=O)[C@@H](C)CC)C(C)C)C(C)C)C(C)C [FLEX] (H-GIKKWVKGVAKGVAKDLAKKIL-NH2) | 18.5 | 6.25 µM | 25 | 4.8 | 0.77 | 1 µM (≈ 2.35 µg/mL) | 6 µM | 25 µM | 2 µM (≈ 4.7 µg/mL) | 0.25 µM (≈ 0.587 µg/mL) | 0.25 µM (≈ 0.587 µg/mL) | 0.5 to 1 µM | 16 µM (≈ 37.6 µg/mL) | 0.5 to 1 µM | 4 µM (≈ 9.4 µg/mL) | 2 to 4 µM | 30 µM | 0.5 µM (≈ 1.17 µg/mL) | 2 to 4 µM | – | – |
| CC[C@H](C)[C@H](NC(=O)[C@H](CCCCN)NC(=O)[C@H](CC(C)C)NC(=O)[C@H](C)NC(=O)[C@H](CCCCN)NC(=O)[C@H](CC(C)C)NC(=O)[C@H](C)NC(=O)[C@@H](NC(=O)[C@H](CCCCN)NC(=O)[C@H](C)NC(=O)[C@@H](NC(=O)[C@@H](N)CCCCN)[C@@H](C)CC)C(C)C)C(=O)N[C@@H](C)C(=O)N[C@@H](CCCCN)C(=O)NCC(=O)N[C@@H](C)C(=O)N[C@@H](CC(C)C)C(=O)N[C@@H](CCCCN)C(=O)N[C@@H](C)C(=O)N[C@@H](CC(C)C)C(N)=O [KIA1] (H-KIAKVALKALKIAKGALKAL-NH2) | 1.6 | – | 1 | 1 | 0.07 | 1.5 µM (≈ 3.07 µg/mL) | 3 µM | 6 µM | 6 µM (≈ 12.3 µg/mL) | 1 µM (≈ 2.05 µg/mL) | 0.75 µM (≈ 1.54 µg/mL) | 3 µM (≈ 6.14 µg/mL) | 8 µM (≈ 16.4 µg/mL) | 1.5 µM (≈ 3.07 µg/mL) | 3 µM (≈ 6.14 µg/mL) | 12 µM (≈ 24.6 µg/mL) | 15 µM | 12 µM (≈ 24.6 µg/mL) | 3 µM (≈ 6.14 µg/mL) | 20 µM | – |
| CC[C@H](C)[C@H](N)C(=O)N[C@@H](CC(=O)O)C(=O)N[C@@H](Cc1c[nH]c2ccccc12)C(=O)N[C@@H](CCCCN)C(=O)N[C@@H](CCCCN)C(=O)N[C@@H](CC(C)C)C(=O)N[C@@H](CC(C)C)C(=O)N[C@@H](CC(=O)O)C(=O)N[C@@H](C)C(=O)N[C@@H](C)C(=O)N[C@@H](CCCCN)C(=O)N[C@@H](CCC(N)=O)C(=O)N[C@H](C(=O)N[C@@H](CC(C)C)C(N)=O)[C@@H](C)CC [MP1, reference compound] (H-IDWKKLLDAAKQIL-NH2) | – | – | – | – | – | – | 20 µM | 37 µM | – | – | – | – | – | – | – | – | – | – | – | 170 µM | IC50 ([1]; MTT assay, 7000 cells/well, 24 h treatment, 37 °C, 5% CO2, absorbance 595 nm, read-out: IC50C (PC-3)): 60 µM; TI (HC20/IC20C) ([1]; human erythrocytes vs PC-3): 1; TI/ IC50C ([1]; performance, product of TI and anticancer activity (1/IC50C)): 0.04; (TI/ IC50C) vs. MP1 ([1]; relative performance with respect to MP1 control peptide): 1.0; TI (IC50F/IC50C) ([1]; therapeutic index, fibroblasts vs PC-3): 2.5; MIC (E. coli MG1655) ([8]; broth microdilution, LB medium, 5 × 10^5 CFU/mL, 18-24 h, 37 °C, at least three assays): >32 µM; IC50 ([12]; MTT assay, 7000 cells/well, 24 h treatment, 37 °C, 5% CO2, absorbance 595 nm, read-out: IC50F (Fibroblasts)): 150 µM |
